# Measurements published in patent publication US11046712B2, “Glycosidase inhibitors” (Asceneuron SA, priority 2014, dated 2021).
# Target: His-Tagged hOGA (human O-GlcNAcase) (Homo sapiens (Human), UniProt O60502)
# Assay: Human O-GlcNAcase enzyme inhibition assay (Example B01)
# Assay type: biochemical
# Chain of His-Tagged hOGA (human O-GlcNAcase) (O60502 whole entry): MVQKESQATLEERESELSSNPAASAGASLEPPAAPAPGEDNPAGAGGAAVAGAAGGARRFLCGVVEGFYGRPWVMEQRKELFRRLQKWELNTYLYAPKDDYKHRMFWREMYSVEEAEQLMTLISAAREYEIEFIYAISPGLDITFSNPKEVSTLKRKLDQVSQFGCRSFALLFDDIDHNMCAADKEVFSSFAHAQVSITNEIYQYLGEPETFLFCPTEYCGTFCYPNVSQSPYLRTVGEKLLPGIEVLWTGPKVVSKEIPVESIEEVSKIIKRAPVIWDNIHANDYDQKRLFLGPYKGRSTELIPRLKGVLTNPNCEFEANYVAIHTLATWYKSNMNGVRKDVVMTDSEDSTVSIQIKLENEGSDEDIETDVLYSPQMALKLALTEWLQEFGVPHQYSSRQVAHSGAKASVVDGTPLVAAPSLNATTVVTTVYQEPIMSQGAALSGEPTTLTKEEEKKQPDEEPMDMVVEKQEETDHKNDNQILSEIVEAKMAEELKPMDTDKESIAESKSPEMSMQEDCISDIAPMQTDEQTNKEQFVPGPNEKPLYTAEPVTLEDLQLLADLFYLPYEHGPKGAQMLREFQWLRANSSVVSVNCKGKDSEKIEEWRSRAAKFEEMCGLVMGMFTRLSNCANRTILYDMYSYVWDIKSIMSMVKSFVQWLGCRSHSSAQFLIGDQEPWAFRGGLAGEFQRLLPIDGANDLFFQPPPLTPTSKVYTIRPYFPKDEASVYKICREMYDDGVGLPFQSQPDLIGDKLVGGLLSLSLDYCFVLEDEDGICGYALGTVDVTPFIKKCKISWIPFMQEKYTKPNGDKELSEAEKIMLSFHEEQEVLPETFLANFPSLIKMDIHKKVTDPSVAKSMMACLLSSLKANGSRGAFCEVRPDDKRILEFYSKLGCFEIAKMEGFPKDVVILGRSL
"OGA inhibitor activity, in words",Compound,"IC50 (OGA IC50 (M), OGA enzyme inhibition assay, activity range classes)"
very potent OGA inhibitors,"CC(c1ccc2c(c1)OCO2)N1CCN(c2ncc(CO)cn2)CC1 (racemic) [Example 52, (2-(4-(1-(benzordiri,31 dioxol-5-yl)ethyl)piperazin-1-yl)pyrimidin-5-yl)methanol]",
,"CC(=O)Nc1cnc(N2CCN([C@H](C)c3ccc4c(c3)OCO4)CC2)nc1 (single isomer, unassigned) [Example 77]",1e-06 to 1e-05 M
very potent OGA inhibitors,C[C@@H](c1ccc2c(c1)OCO2)N1CCN(c2ncc(C(=O)N(C)C)cn2)CC1 [Example 137],
very potent OGA inhibitors,"CC(O)c1cnc(N2CCN([C@@H](C)c3ccc4c(c3)OCO4)CC2)nc1 (stereo in doubt) [Example 168, 1-(2-(4-((S)-1-(benzo[dl]1,31dioxol-5-yl)ethyl)piperazin-1-yl)pyrimidin-5-yl)ethan-1-ol]",
